Experimental data taken from BindingDB's records for PubMed 2704370 (National Institute of Mental Health, 1989).
pKi: −log10 of the molar value.

Columns and labels:
[1] = biological target: T1, Muscarinic acetylcholine receptor M1 (Rattus norvegicus, UniProt P08482)
T1 sequence (P08482 whole entry): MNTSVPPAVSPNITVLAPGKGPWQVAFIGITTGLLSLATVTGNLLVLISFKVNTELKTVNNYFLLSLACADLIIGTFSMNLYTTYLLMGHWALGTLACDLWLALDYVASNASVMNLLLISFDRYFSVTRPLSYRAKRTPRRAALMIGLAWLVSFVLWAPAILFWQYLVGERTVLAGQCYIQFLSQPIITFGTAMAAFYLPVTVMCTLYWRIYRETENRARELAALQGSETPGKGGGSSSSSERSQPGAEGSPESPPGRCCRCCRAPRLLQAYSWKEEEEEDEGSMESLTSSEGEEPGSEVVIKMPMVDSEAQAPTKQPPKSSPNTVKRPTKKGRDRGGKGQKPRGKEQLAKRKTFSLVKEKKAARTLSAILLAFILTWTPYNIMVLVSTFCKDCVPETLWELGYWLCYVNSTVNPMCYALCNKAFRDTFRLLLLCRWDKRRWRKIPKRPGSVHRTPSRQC

[2] = biological target: T2, Muscarinic acetylcholine receptor M4 (Homo sapiens, UniProt P08173)
T2 sequence (P08173 whole entry): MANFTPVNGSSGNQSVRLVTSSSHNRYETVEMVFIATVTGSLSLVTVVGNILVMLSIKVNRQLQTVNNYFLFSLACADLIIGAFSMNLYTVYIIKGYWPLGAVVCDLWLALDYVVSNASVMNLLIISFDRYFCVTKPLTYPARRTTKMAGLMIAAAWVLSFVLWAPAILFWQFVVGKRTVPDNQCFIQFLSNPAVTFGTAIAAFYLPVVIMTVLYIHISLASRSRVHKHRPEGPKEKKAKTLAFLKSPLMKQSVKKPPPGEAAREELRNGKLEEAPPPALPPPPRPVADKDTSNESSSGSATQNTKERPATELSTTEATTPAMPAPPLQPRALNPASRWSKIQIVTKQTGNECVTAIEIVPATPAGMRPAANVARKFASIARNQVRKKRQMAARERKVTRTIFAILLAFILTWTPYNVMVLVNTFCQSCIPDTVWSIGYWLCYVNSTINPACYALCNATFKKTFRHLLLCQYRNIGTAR

[3] = biological target: T3, Muscarinic acetylcholine receptor M5 (Homo sapiens, UniProt P08912)
T3 sequence (P08912 whole entry): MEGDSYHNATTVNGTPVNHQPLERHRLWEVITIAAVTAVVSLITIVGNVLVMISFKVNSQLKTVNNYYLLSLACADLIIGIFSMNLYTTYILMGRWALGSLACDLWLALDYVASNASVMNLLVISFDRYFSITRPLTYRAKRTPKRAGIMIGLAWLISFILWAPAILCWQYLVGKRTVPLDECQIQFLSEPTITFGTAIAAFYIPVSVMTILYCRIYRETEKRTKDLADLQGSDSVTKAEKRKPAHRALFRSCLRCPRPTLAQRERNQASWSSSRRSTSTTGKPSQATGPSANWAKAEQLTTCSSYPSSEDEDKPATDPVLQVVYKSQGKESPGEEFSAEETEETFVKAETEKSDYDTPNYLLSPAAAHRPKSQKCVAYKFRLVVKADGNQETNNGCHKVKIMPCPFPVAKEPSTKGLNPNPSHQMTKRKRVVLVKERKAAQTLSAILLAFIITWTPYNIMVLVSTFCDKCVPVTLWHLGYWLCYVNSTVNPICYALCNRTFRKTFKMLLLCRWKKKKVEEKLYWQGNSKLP

C[N+]1(C)CCN(CC(O)(c2ccccc2)C2CCCCC2)CC1 (stereo unspecified) [CAS_115-63-9]
pKi [1]: 8.64
pKi [2]: 8.26
pKi [3]: 8.43

OC(CCCN1CCCCC1)(c1ccccc1)C1CCCCC1 (stereo unspecified) [CAS_113010-69-8]
pKi [1]: 7.96
pKi [3]: 7.08

C[N+]1([SiH3])CCN(CC(O)(c2ccccc2)C2CCCCC2)CC1 (stereo unspecified) [CAS_124393-85-7]
pKi [1]: 8.70
pKi [2]: 8.49
pKi [3]: 8.70

O[Si](CCCN1CCCCC1)(c1ccccc1)C1CCCCC1 (stereo unspecified) [HHSiD]
pKi [1]: 7.36
pKi [3]: 7.20

COc1ccccc1CNCCCCCCNCCCCCCCCNCCCCCCNCc1ccccc1OC [METHOCTRAMINE]
pKi [3]: 7.24
